Key:
C4-2B cell line = assay type: cell-based; conditions: 120 hours incubation, MTT, n = DAR given with each label
Excerpt: The cell lines used in the cytotoxicity assays were: C4-2B Cells which was obtained from ATCC through license agreement with MD Anderson Cancer Center, Houston, TX, USA. 22RV1, A549, U87, NCI-N87, MKN-7, BxPC-3, JIMT-1, MDA-MB-231, SU86.86, SW1990, OVCAR-3, Calu-3, A431, AsPC-1, CFPAC-1, DMS53, HCC827 and NCI-H1975 cells were purchased from ATCC, Nanjing Cobioer and The Cell Bank of Shanghai Institute of Biochemistry and Cell Biology, and the others. C4-2B and PC-3-4H7 are both Steap1 and PSMA antigen high express cells, but medium expressed of both B7H3 and DLL3 antigens. 22RV1 is low express cells for Steap1, PSMA, B7H3 and DLL3 antigens. U87 is glioblastoma (GBM) cells, NCI-N87 and MKN-7 cell line are stable models of the gastric epithelium. A431 is human epidermoid carcinoma. JIM-1 is trastuzumab-resistant Her2 breast tumor cells. SU86.86, SW1990, CFPAC-1 and AsPC-1 are pancreatic cancer cell lines. OVCAR-3 is ovarian cancer cell lines. Calu-3, HCC827 and NCI-H1975 are a human lung adenocarcinoma. All these cells were grown according to the provider manuals. To run the assay, the cells (180 μl, 6000 cells) were added to each well in a 96-well plate and incubated for 24 hours at 37° C. with 5% CO2. Next, the cells were treated with test compounds (20 μl) at various concentrations in appropriate cell culture medium (total volume, 0.2 mL). The control wells contain cells and the medium but lack the test compounds. The plates were incubated for 120 hours at 37° C. with 5% CO2. MTT (5 mg/mL) was then added to the wells (20 μl) and the plates were incubated for 1.5 hr at 37° C. The medium was carefully removed and DMSO (180 μl) was added afterward. After it was shaken for 15 min, the absorbance was measured at 490 nm and 570 nm with a reference filter of 620 nm. The inhibition % was calculated according to the following equation: […]

[1] = test system: GUCY2C-9C9 colon cancer cells; assay: in vivo activity of anti GUCY2C ADCs (FIG. 15); conditions: anti GUCY2C antibody drug conjugates, DAR=4.0˜4.2, one time administration, 3.0 mg/Kg, over 20 days, compared with anti GUCY2C antibody-GGFG-Dxd
PC-3-4B9 cells = assay: affinities against PC-3-4B9 cells (FIG. 8); assay type: binding; conditions: PC-3-4B9 only express highly PSMA antigens
C4-2B cells = assay: affinities against C4-2B cells (FIG. 7); assay type: binding; conditions: C4-2B cells highly express both Steap1 and PSMA antigens
PC-3 cells = assay: affinities against nature PC-3 cells (FIG. 10); assay type: binding; conditions: PC-3 cells do not have either Steap1 or PSMA antigens
PC-3-4G5 cells = assay: affinities against PC-3-4G5 cells (FIG. 9); assay type: binding; conditions: PC-3-4G5 only express highly Steap1 antigens
Excerpt: Since PC-3-4G5 only express highly Steap1 antigens, thus both prepared vandortuzumab and the vandortuzumab-C002 had the good affinity for PC-3-4G5 cells.

## CCc1c2c(nc3cc(F)c(NC(=O)CNC(=O)[C@H](C)NC(=O)[C@@H](NC(=O)[C@H](CCC(=O)NCCOCCOCCNC(=O)c4ccc(C(=O)NCCCCC(=O)NCCCC[C@H](NC(=O)N[C@@H](CCC(=O)O)C(=O)O)C(=O)O)cc4)NC(=O)CCCN4C(=O)CC(S)C4=O)C(C)C)cc13)-c1cc3c(c(=O)n1C2)COC(=O)[C@]3(O)CC (stereo partly drawn) [C040]
C4-2B cell line
  IC50: 4.27 nM

## CC[C@@]1(O)C(=O)OCc2c1cc1n(c2=O)Cc2c-1nc1cc(F)c(C)c3c1c2[C@@H](NC(=O)OCC[N+](C)(C)Cc1ccc(NC(=O)[C@H](C)NC(=O)[C@@H](NC(=O)[C@H](CCC(=O)NCCOCCOCCNC(=O)c2ccc(C(=O)NCCCCC(=O)NCCCC[C@H](NC(=O)N[C@@H](CCC(=O)O)C(=O)O)C(=O)O)cc2)NC(=O)CCCN2C(=O)CC(S)C2=O)C(C)C)cc1)CC3 (stereo partly drawn) [C044]
C4-2B cell line
  IC50: 7.87 nM

## CC[C@@]1(O)C(=O)OCc2c1cc1n(c2=O)Cc2c-1nc1cc(F)c(C)c3c1c2[C@@H](NC(=O)OCC[N+](C)(C)Cc1ccc(NC(=O)[C@H](C)NC(=O)[C@@H](NC(=O)[C@H](CCC(=O)N(CCNC(=O)CCOCCOCCNC(=O)c2ccc(C(=O)NCCCCC(=O)NCCCC[C@H](NC(=O)N[C@@H](CCC(=O)O)C(=O)O)C(=O)O)cc2)CCNC(=O)CCOCCOCCNC(=O)c2ccc(C(=O)NCCCCC(=O)NCCCC[C@H](NC(=O)N[C@@H](CCC(=O)O)C(=O)O)C(=O)O)cc2)NC(=O)CCCN2C(=O)CC(S)C2=O)C(C)C)cc1)CC3 (stereo partly drawn) [C045]
C4-2B cell line
  IC50: 6.76 nM

## CC[C@@]1(O)C(=O)OCc2c1cc1n(c2=O)Cc2c-1nc1cc(F)c(C)c3c1c2[C@@H](NC(=O)[C@H](C)NC(=O)[C@@H](NC(=O)[C@H](CCC(=O)NCCOCCOCCNC(=O)c1ccc(C(=O)NCCCCC(=O)NCCCC[C@H](NC(=O)N[C@@H](CCC(=O)O)C(=O)O)C(=O)O)cc1)NC(=O)C1CCN(C(=O)CS)CC1)C(C)C)CC3 [C060]
C4-2B cell line
  IC50: 7.57 nM

## CC[C@@]1(O)C(=O)OCc2c1cc1n(c2=O)Cc2c-1nc1cc(F)c(C)c3c1c2[C@@H](NC(=O)OCc1ccc(NC(=O)[C@H](C)NC(=O)[C@@H](NC(=O)[C@H](CCC(=O)N[C@H](C(=O)N[C@@H](C)C(=O)NC(=O)[C@H](CCC(=O)NC(c2ccccc2)(c2ccccc2)c2ccccc2)NC(=O)[C@@H]2CCCN2C(=O)[C@@H]2CCCN2C(=O)[C@H](CCCNC(=N)NC(c2ccccc2)(c2ccccc2)c2ccccc2)NC(=O)[C@H](CCCNC(=N)NC(c2ccccc2)(c2ccccc2)c2ccccc2)NC(=O)[C@H](CCCNC(=N)NC(c2ccccc2)(c2ccccc2)c2ccccc2)NC(=O)[C@H](CCC(=O)NC(c2ccccc2)(c2ccccc2)c2ccccc2)NC(=O)[C@H](CCCNC(=N)NC(c2ccccc2)(c2ccccc2)c2ccccc2)NC(=O)[C@H](CCCNC(=N)NC(c2ccccc2)(c2ccccc2)c2ccccc2)NC(=O)[C@H](CCCCNC(=O)OC(C)(C)C)NC(=O)[C@H](CCCCNC(=O)OC(C)(C)C)NC(=O)[C@H](CCCNC(=N)NC(c2ccccc2)(c2ccccc2)c2ccccc2)NC(=O)CNC(=O)OCC2c4ccccc4-c4ccccc42)C(C)C)NC(=O)CCCNC(=O)[C@H](CCCCNC(=O)COCCOCCOCCOCCOCCOCCOCCOCCOCCOC)NC(=O)CCCN2C(=O)C=CC2=O)C(C)C)cc1C(=O)NCCOCCOCCOCCOCCOCCOCCOCCOC)CC3 [compound 570]
[1]
  in vivo antitumor activity over time: better antitumor activity than the regular GGFG-Dxd conjugate

B1: vandortuzumab-C002 (conjugate, chains of the INN, looked up)
VH: EVQLVESGGGLVQPGGSLRLSCAVSGYSITSDYAWNWVRQAPGKGLEWVGYISNSGSTSYNPSLKSRFTISRDTSKNTLYLQMNSLRAEDTAVYYCARERNYDYDDYYYAMDYWGQGTLVTVSS
VL: DIQMTQSPSSLSASVGDRVTITCKSSQSLLYRSNQKNYLAWYQQKPGKAPKLLIYWASTRESGVPSRFSGSGSGTDFTLTISSLQPEDFATYYCQQYYNYPRTFGQGTKVEIK
modifications: drug conjugate C002
PC-3-4B9 cells
  affinity against PC-3-4B9 cells: had the affinity
C4-2B cells
  affinity against C4-2B cells: better affinity for the C4-2B cells than the naked (unconjugated) antibodies
PC-3 cells
  affinity against nature PC-3 cells: not able to show the affinity at all
PC-3-4G5 cells
  affinity against PC-3-4G5 cells: good affinity
